US20150004636A1, “NEURONAL BIOSENSOR FOR DETECTION OF TOXINS” (priority 2011, published 2015)
Where two headings read alike, the source gives them in different places.

Key:
Format in all cases: cell-based, chick
[1] = system: dorsal root ganglia (DRG) neurons
Method: The eggs were incubated for 10 days before dissection in a dark egg incubator with motion at a dry temperature of 86-100° F. and wet temperature of 84-86° F. From the ventral side, the spines of the embryos were exposed, the kidneys were removed one at a time under higher dissecting power carefully so as not to remove the nerve chains situated just below the kidney along the ventral side of the spinal cord. The DRGs were each dissected from the area between the bottom of the ribs and the posterior end of the embryo, placed in a tissue culture dish containing F12 media. DRGs from 12 embryos were transferred with a fire-polished Louis Pasteur pipette to a sterile 15 ml tube. After the DRGs settled to the bottom of the tube, a pipette was used to carefully remove the F12 media, avoiding removal of any DRGs. Ten mLs of 5% trypsin were added to the tube with DRGs, mixed, and incubated for 30 minutes in a 37° C. water bath. Every 10 minutes of incubation the tube was removed from the water bath and tapped to mix the DRGs and allow the trypsin to digest connective tissue to separate the neurons. After incubation, trypsin was removed using a pipette. The cells were rinsed with 2 ml of Neurobasal media 2-3 times by adding media, allowing the DRGs to settle to the bottom of the tube before removing the media, and adding another 2 ml of media. After the final rinse, the volume was brought up to 1 ml and the dissociated neurons were triturated with a medium-sized, then a small-sized, fire-polished Louis Pasteur pipette until the cell solution appeared cloudy and no individual DRGs were present in the media. A small amount of the solution was transferred to a hemocytometer and the single cells were counted. The cell solution was diluted so that 10-15×10^4 cells were added to an Alconox® treated, 0.1 mg/ml collagen coated, 25 mm diameter round glass coverslip in a 35 mm dish with 2 ml of Neurobasal media. The DRGs were incubated in 5% CO2 at 37° C. for 2-3 days before experimentation. Approximately 1 mL of media was replaced with new media every other day until experiments began.
Experiments began 2-3 days after neurons were plated. A dish of neurons was washed with 1×HBSS then 1×HBSS+1 mg/ml bovine serum albumin (BSA) before the cells were bathed in 4 μM Fura-2AM in 1×HBSS+BSA for incubation for 45 min at 37° C. in 5% CO2. The cells were washed 4× with 1×HBSS and incubated for another 20-60 min in 1×HBSS. A coverslip containing the neurons was removed after the final wash and placed in an apparatus for calcium imaging.
All toxins including nicotine, boric acid, ionomycin, glutamate, and glycine were prepared in 1×HBSS according to their final concentrations (Table 3).
The coverslip containing the neurons was placed in a perfusion apparatus onto an Olympus IX70 microscope equipped with a 20× fluorescence objective, a Mercury lamp and filter sets that optimized the Fura-2 excitation ([…]) and emission wavelengths (510 nm). The cells were bathed continuously by perfusion of solutions at ˜4.7 mL/min. The cells were bathed with 1×HBSS during software setup and for resting Ca^2+ measurements before exposure to stimulating or toxic solutions. InCyt Im2™ software was used to measure the emission intensities and convert to Ca^2+ concentrations. Only designated areas of each neuron soma were chosen for measurements. Calibration curves were generated for conversion of light intensity emitted per excitation wavelength using standard Ca^2+ solutions in the free acid form of Fura-2 to convert emitted light intensity to Ca^2+ concentration. Each experiment began with 3 min wash with HBSS to establish resting intracellular Ca^2+ measurements. Depending on the toxin used, the neurons were then exposed to a flow of toxic/stimulating solution for 5-10 min. Each experiment ended with a 1 min. wash of HBSS to determine reversal or change of the stimulating/toxic solution. […]

DRG neurons [2] = system: DRG neurons
DRG neurons [3] = system: DRG neurons; remark: listed apart in the source
Method: For microscopy experiments, holes were drilled in the bottom of 35 mm tissue culture dishes with a 7/32″ drill bit and drill press. Etching was performed on 12 mm round glass coverslips that were submerged in 300 ml of boiling 18 MΩ H2O containing 7.5 g Alconox detergent for 30 minutes. The coverslips were then rinsed with 18MΩ H2O and dried in a 150 mm Petri dish in a laminar flow hood. A section of Tygon tubing (0.5 inch long, 0.5 inch inner diameter, and 0.75 inch outer diameter) was used to apply Dow Corning 732 multi-purpose sealant to the bottom of the tissue culture dishes just around the hole that was drilled previously. Forceps were used to press one round glass coverslip to the bottom of each tissue culture dish until a continuous seal was formed around the hole. The tissue culture dishes were laid in a fume hood to dry. Exposure to ultraviolet light for at least an hour or treatment with ethanol for approximately 30 seconds was used to sterilize the dishes. Type VII collagen, to promote cell adhesion to the glass coverslip, was added to each dish for coating and allowed to air dry in the laminar flow hood to maintain sterility. Once the dishes were dry, the lids were placed back on the dishes and the edges of the Petri dishes were then wrapped in Parafilm and stored in a 4° C. refrigerator before use.
Focusing on the FM® dye, the dye was thawed at room temperature and vortexed. A 30 μM FM® dye solution was made with 1×HBSS. The solution was heated to 37° C. and vortexed just before each cell staining experiment. The cells were exposed to the FM® dye solution for 5-10 min before imaging.
The media was removed from the 35 mm tissue culture dish using a micropipette. The surface was then rinsed once with 1 ml HBSS. […]
DRG neurons stained with FM® 4-64 were imaged before exposure to 100 μM ionomycin. […] Over the 10 min of imaging, the samples were moving out of focus and the focus was readjusted intermittently for more consistent images. […]

DRG neurons [4] = assay: Fluorescence spectroscopy of FM 4-64 labeled DRG neurons
Method: For spectroscopy experiments, DRG neurons were grown on 11×22 mm plastic coverslips that were treated with Alconox and coated with Type VII rat tail collagen, using the same methods that were mentioned previously. Cells were plated with ˜15×10^4 cells in each 35 mm tissue culture dish containing one plastic coverslip. The cells were incubated in 5% CO2 at 37° C. for 2 days before experiments began.
Before scanning the cell samples, the coverslip was mounted into a coverglass holder and was held inside a cuvette at a 45° angle from the light source and the photo detector. The coverglass holder was placed in a cuvette containing 1×HBSS to rinse the media from the cells prior to the experiments. For the spectroscopy experiments, the coverglass holder was placed in the cuvette that was filled with either 1×HBSS or stimulating solutions. The orientation of the coverglass in the cuvette was situated so that the cell surface was facing the light source and photodetector, both at 45° angles. For experiments using FM® 4-64, scan were conducted using a HORIBA Jobin Yvon FluoroLog®-3 spectrofluorometer with an excitation wavelength of 558 nm and an emission range was detected from 566 to 750 nm. The slit width for excitation and emission was 3 nm and data was collected every 0.2 sec, once for each wavelength. Fluorescence intensity was detected in counts per second (cps). The data was transferred into MS Excel and analyzed using Matlab.
In Matlab, the maximum intensity of each scan was found for the emission wavelength range of interest and the ratio of the maximum emission intensities was taken between non-labeled, non-stimulated cells and FM®-labeled cells before and after stimulation. This ratio was used to determine the difference in fluorescence, and therefore the amount of stained membranes present in the sample before and after stimulation with ionomycin.
To determine whether a change in fluorescence of FM®-labeled neurons could be measured, the cells were stained and stimulated using the same methods mentioned above. Four emission scans were performed: a control scan of the non-labeled neurons in HBSS, a scan of the FM®-labeled neurons in HBSS, a scan of the FM® labeled neurons in ionomycin 5 min after initial stimulation, and a scan of the post stimulated, FM®-labeled neurons in 1×HBSS wash. The cells were rinsed with warm 1×HBSS before each scan, and the cells were stimulated for a total of 10 min before rinsed with 1×HBSS for the fourth scan. The ratio of fluorescence intensities of non-labeled neurons to FM®-labeled neurons, FM®-labeled ionomycin-stimulated neurons, and FM®-labeled ionomycin-stimulated rinsed neurons in Table 5.

[5] = 10 min, 50 mM boric acid, 500 μM glutamate or 100 μM nicotine
[6] = FM-labeled neurons after 10 min ionomycin stimulation, rinsed in 1×HBSS
[7] = FM-labeled neurons, 5 min in ionomycin

[Cl-].[K+] [KCl, potassium chloride]
mean intracellular Ca2+ concentration during stimulation ([1]; 50 mM KCl, n=104): 511 nM
migration of FM 4-64 dye in stained neurons (DRG neurons [2]; 50 mM KCl, 10 min after addition): some migration of FM® dye throughout the DRG neurons
cell morphology in phase images during stimulation (DRG neurons [2]; 50 mM KCl, 10 min of stimulation): some swelling in small parts of axons

N[C@@H](CCC(=O)O)C(=O)O [glutamate]
percent of cells that responded with an increase of intracellular Ca2+ ([1]; 100 μM glutamate): 21%
percent of cells without obvious increase of intracellular Ca2+ (non-responding) ([1]; 100 μM glutamate): 79%
average intracellular Ca2+ concentration, responding cells ([1]; 100 μM glutamate, n=27, resting 68.7 nM): 301 nM
average intracellular Ca2+ concentration, non-responding cells ([1]; 100 μM glutamate, n=100, resting 67 nM): 71 nM
percent of cells that responded with an increase of intracellular Ca2+ ([1]; 500 μM glutamate): 34%
percent of cells without obvious increase of intracellular Ca2+ (non-responding) ([1]; 500 μM glutamate): 66%
average intracellular Ca2+ concentration, responding cells ([1]; 500 μM glutamate, n=75, resting 82): 352 nM
average intracellular Ca2+ concentration, non-responding cells ([1]; 500 μM glutamate, n=146, resting 84 nM): 88 nM
percent of cells that responded with an increase of intracellular Ca2+ ([1]; 1 mM glutamate): 15%
percent of cells without obvious increase of intracellular Ca2+ (non-responding) ([1]; 1 mM glutamate): 85%
average intracellular Ca2+ concentration, non-responding cells ([1]; 1 mM glutamate, n=38, resting 79 nM): 87 nM
axon morphology after stimulation (DRG neurons [2]; [5]): swollen axons
migration of FM 4-64 dye in stained neurons (DRG neurons [2]; [5]): no migration of FM® 4-64 throughout the cells

CN1CCCC1c1cccnc1 (stereo not shown) [nicotine]
change of intracellular Ca2+ compared to resting [1]: only a few cells experiencing an increase in intracellular Ca^2+
axon morphology after stimulation (DRG neurons [2]): swollen axons
migration of FM 4-64 dye in stained neurons (DRG neurons [2]): no migration of FM® 4-64 throughout the cells

CCN(CC)c1ccc(/C=C/C=C/C=C/c2cc[n+](CCC[N+](CC)(CC)CC)cc2)cc1.[Br-].[Br-] [FM® 4-64]
staining of DRG neuron membranes (DRG neurons [3]; 30 μM FM 4-64 in 1×HBSS): complete staining of the cell membranes around the soma and axons

OB(O)O [boric acid]
change of intracellular Ca2+ compared to resting [1]: slight, but significant, decrease
mean intracellular Ca2+ concentration during stimulation [1]: 58 nM
axon morphology after stimulation (DRG neurons [2]): swollen axons
differences in membrane structure before vs after treatment (DRG neurons [2]): very little differences to no differences
migration of FM 4-64 dye in stained neurons (DRG neurons [2]): no migration of FM® 4-64 throughout the cells

C[C@H](CCC(=O)O)C[C@H](C)C[C@H](C)C(=O)/C=C(\O)[C@H](C)C[C@H](C)C/C=C/[C@@H](C)[C@@H](O)[C@@H](C)[C@@H](O)C[C@@H]1CC[C@@](C)([C@H]2CC[C@@](C)([C@@H](C)O)O2)O1 [ionomycin]
cell morphology in phase images during stimulation (DRG neurons [3]; 100 μM ionomycin, up to 10 min): shrinkage of the cell soma
migration of FM 4-64 dye in stained neurons (DRG neurons [3]; 100 μM ionomycin, within the first 25 sec of stimulation): migrated from the membranes of the axons into the soma
mean intracellular Ca2+ concentration during stimulation ([1]; ~100 μM ionomycin, highest time points averaged, n=228): 988 nM
change of intracellular Ca2+ compared to resting ([1]; ~100 μM ionomycin, positive control): large and irreversible
Fluorescence Intensity at 667 nm (DRG neurons [4]; [6]): 2238 cps
Fluorescence Intensity at Peak Emission Wavelength (DRG neurons [4]; [6]): 2362 cps
Peak Emission Wavelength (DRG neurons [4]; [6]): 676 nm
Fluorescence Intensity at 667 nm (DRG neurons [4]; [7]): 3303 cps
Fluorescence Intensity at Peak Emission Wavelength (DRG neurons [4]; [7]): 3719 cps
Peak Emission Wavelength (DRG neurons [4]; [7]): 684 nm
Ratio of Fluorescence Intensities at 667 nm (DRG neurons [4]; FM-labeled neurons, 5 min in ionomycin vs non-labeled neurons): 2.05
Ratio of Fluorescence Intensities at 667 nm (DRG neurons [4]; after 10 min ionomycin stimulation, rinsed in 1×HBSS vs non-labeled neurons): 1.39
